In PubChem BioAssay AID328 (DTP/NCI, 2004):
Several values for one entry are separate records, joined by “and”; a condition that tells them apart may be missing. Identical values can stand only once. Toxic doses and inconclusive results are not listed.

Test system: BDF1 mice, P388 leukemia ip, median survival T/C
Test: NCI In Vivo Anticancer Drug Screen. Data for tumor model P388 Leukemia (intraperitoneal) in B6D2F1 (BDF1) mice
Conditions: endpoint: median survival time, higher = longer survival
Method in brief: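 Transplantable tumour in mice; compound vs vehicle dosing; survival scored; ratio of treated to control reported.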

[1] = dose: 15.0 mg/kg/injection, schedule: Q01DX009 (ip), vehicle: saline with Tween-80
[2] = dose: 60.0 mg/kg/injection, schedule: Q01DX009 (ip), vehicle: saline with Tween-80
[3] = dose: 50.0 mg/kg/injection, schedule: Q04DX003 (ip), vehicle: saline with Tween-80
[4] = dose: 100.0 mg/kg/injection, schedule: Q01DX009 (ip), vehicle: saline with Tween-80
[5] = dose: 100.0 mg/kg/injection, schedule: Q04DX003 (ip), vehicle: saline with Tween-80
[6] = dose: 200.0 mg/kg/injection, schedule: Q01DX009 (ip), vehicle: saline with Tween-80
[7] = dose: 200.0 mg/kg/injection, schedule: Q04DX003 (ip), vehicle: saline with Tween-80

`C=CC(O)CN1CC1` (configuration not stated) was tested, and the T/C (dose: 10.0 mg/kg/injection, schedule: Q04DX003 (ip), vehicle: saline) was 191 % of control.
With `CCOC(=S)SCC(=O)Nc1ccc(I)cc1` the T/C [1] was 93 % of control, the T/C (dose: 30.0 mg/kg/injection, schedule: Q01DX009 (ip), vehicle: saline with Tween-80) was 95 % of control and the T/C [2] was 98 % of control.
With `CC(=O)C1CCC2C3CCC4=CC(=O)CC4(C)C3CCC12C` (configuration not stated) the T/C (dose: 50.0 mg/kg/injection, schedule: Q01DX009 (ip), vehicle: saline with Tween-80) was 95 % of control, the T/C [3] was 104 % of control and the T/C [4] was 90 % of control and 100 % of control. The T/C [5] was 95 % of control and 104 % of control, the T/C [6] was 90 % of control and 95 % of control and the T/C [7] was 90 % of control and 95 % of control. The T/C (dose: 400.0 mg/kg/injection, schedule: Q01DX009 (ip), vehicle: saline with Tween-80) was 86 % of control and the T/C (dose: 400.0 mg/kg/injection, schedule: Q04DX003 (ip), vehicle: saline with Tween-80) was 90 % of control.
For `O=C(NC(Cc1ccccc1)C(=O)Oc1ccc(Cl)cc1)OCc1ccccc1` (configuration not stated), the T/C (dose: 100.0 mg/kg/injection, schedule: Q04DX002 (ip), vehicle: saline with Tween-80) was 101 % of control, the T/C (dose: 200.0 mg/kg/injection, schedule: Q04DX002 (ip), vehicle: saline with Tween-80) was 94 % of control and the T/C (dose: 400.0 mg/kg/injection, schedule: Q04DX002 (ip), vehicle: saline with Tween-80) was 100 % of control and 91 % of control.
`CCN(CC)CCOc1ccccc1C` was tested, and the T/C (dose: 20.0 mg/kg/injection, schedule: Q01DX009 (ip), vehicle: saline) was 107 % of control, the T/C (dose: 20.0 mg/kg/injection, schedule: Q04DX003 (ip), vehicle: saline) was 100 % of control and the T/C (dose: 40.0 mg/kg/injection, schedule: Q01DX009 (ip), vehicle: saline) was 100 % of control. For the same compound, the T/C (dose: 40.0 mg/kg/injection, schedule: Q04DX003 (ip), vehicle: saline) was 91 % of control, the T/C (dose: 80.0 mg/kg/injection, schedule: Q01DX009 (ip), vehicle: saline) was 89 % of control and the T/C (dose: 80.0 mg/kg/injection, schedule: Q04DX003 (ip), vehicle: saline) was 91 % of control.
`CC(C)(C)C(=O)CC(O)(C(F)(F)Cl)C(F)(F)Cl` was tested, and the T/C [4] was 100 % of control and the T/C [6] was 100 % of control.
For `COC1=C(OC)C(=O)C(C/C=C(\C)CC/C=C(\C)CC/C=C(\C)CC/C=C(\C)CC/C=C(\C)CC/C=C(\C)CC/C=C(\C)CC/C=C(\C)CCC=C(C)C)=C(C)C1=O`, the T/C (dose: 5.0 mg/kg/injection, schedule: Q01DX025 (ip), vehicle: saline with Tween-80) was 109 % of control, the T/C (dose: 10.0 mg/kg/injection, schedule: Q01DX025 (ip), vehicle: saline with Tween-80) was 106 % of control and the T/C (dose: 20.0 mg/kg/injection, schedule: Q01DX025 (ip), vehicle: saline with Tween-80) was 104 % of control. The T/C (dose: 40.0 mg/kg/injection, schedule: Q01DX025 (ip), vehicle: saline with Tween-80) was 98 % of control.
For `Cn1nnnc1[N-]Cc1ccccc1.[Au+].c1ccc([PH+](c2ccccc2)c2ccccc2)cc1`, the T/C (dose: 12.5 mg/kg/injection, schedule: Q01DX001 (ip), vehicle: saline with Tween-80) was 111 % of control, the T/C (dose: 25.0 mg/kg/injection, schedule: Q01DX001 (ip), vehicle: saline with Tween-80) was 111 % of control and the T/C (dose: 50.0 mg/kg/injection, schedule: Q01DX001 (ip), vehicle: saline with Tween-80) was 123 % of control.
With `CCCNC(C)(C)C(SS)c1ccc(Cl)cc1` (configuration not stated) the T/C [3] was 109 % of control, the T/C [5] was 104 % of control and the T/C [7] was 109 % of control.
For `COc1cccc(/C=C/[N+](=O)[O-])c1`, the T/C [1] was 108 % of control, the T/C (dose: 20.0 mg/kg/injection, schedule: Q01DX009 (ip), vehicle: Klucel (hydroxypropylcellulose) (HPC)) was 107 % of control and the T/C (dose: 30.0 mg/kg/injection, schedule: Q01DX009 (ip), vehicle: Klucel (hydroxypropylcellulose) (HPC)) was 115 % of control. For the same compound, the T/C [2] was 100 % of control.
